Legend:
[1] = IV Cassette PK Assay in rats; assay type: in vivo; conditions: rat, male Wistar-Han rats, plasma, LC-MS/MS, read-out: Cassette PK T1/2 (converted)
Protocol: The results were obtained using the following the procedure:
Adult male Wistar-Han rats were fasted overnight and administered a cassette IV dose of mixture of several compounds via a previously implanted catheter in the femoral vein. Animals were allowed access to food 4 h post dose. Blood samples were collected into EDTA-containing tubes at the following time points: 0.03, 0.13, 0.25, 0.5, 1, 2, 4, 8 h post-dose. Blood samples were stored on ice until plasma was harvested by centrifugation. Plasma was transferred to a 96-well plate and stored at −20° C. until analysis. Concentrations of each compound in rat plasma were determined by LC-MS/MS following protein precipitation.

[2] = molecular target: T1, sGC α1/β1 heterodimer stably expressed in CHO-K1 cell line (CHO-K1/sGC) (Homo sapiens, UniProt Q02108+Q02153); experiment: Cell-based sGC Functional Assay (CASA Assay), cGMP generation; conditions: CHO-K1/sGC cells, 1 hr at 37° C., cGMP by HTRF, presence or absence of 1 μM DETA-NO not given; for EC50: 4P fit, read-out: IP (nM) (inflection point)
T1 construct: expressed in transfected cells
T1 sequence (Q02108 1-690): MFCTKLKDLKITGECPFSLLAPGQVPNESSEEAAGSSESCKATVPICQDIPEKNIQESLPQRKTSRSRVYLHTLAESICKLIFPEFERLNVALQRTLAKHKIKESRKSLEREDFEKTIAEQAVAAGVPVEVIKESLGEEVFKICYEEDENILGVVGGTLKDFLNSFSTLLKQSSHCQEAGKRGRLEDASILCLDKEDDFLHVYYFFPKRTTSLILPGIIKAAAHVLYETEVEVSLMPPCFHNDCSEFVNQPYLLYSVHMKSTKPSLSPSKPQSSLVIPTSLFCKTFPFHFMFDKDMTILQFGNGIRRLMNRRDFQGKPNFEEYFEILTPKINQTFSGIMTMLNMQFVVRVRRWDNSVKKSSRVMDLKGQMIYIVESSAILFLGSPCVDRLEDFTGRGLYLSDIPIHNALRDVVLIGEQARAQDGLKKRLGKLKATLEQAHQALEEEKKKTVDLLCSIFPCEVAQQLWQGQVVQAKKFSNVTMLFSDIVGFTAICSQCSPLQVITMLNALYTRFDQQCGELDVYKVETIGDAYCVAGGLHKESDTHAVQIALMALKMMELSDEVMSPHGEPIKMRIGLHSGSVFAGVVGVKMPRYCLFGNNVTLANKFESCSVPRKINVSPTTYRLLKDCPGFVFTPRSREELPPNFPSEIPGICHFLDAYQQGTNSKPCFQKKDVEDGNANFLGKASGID
T1 sequence (Q02153 1-619): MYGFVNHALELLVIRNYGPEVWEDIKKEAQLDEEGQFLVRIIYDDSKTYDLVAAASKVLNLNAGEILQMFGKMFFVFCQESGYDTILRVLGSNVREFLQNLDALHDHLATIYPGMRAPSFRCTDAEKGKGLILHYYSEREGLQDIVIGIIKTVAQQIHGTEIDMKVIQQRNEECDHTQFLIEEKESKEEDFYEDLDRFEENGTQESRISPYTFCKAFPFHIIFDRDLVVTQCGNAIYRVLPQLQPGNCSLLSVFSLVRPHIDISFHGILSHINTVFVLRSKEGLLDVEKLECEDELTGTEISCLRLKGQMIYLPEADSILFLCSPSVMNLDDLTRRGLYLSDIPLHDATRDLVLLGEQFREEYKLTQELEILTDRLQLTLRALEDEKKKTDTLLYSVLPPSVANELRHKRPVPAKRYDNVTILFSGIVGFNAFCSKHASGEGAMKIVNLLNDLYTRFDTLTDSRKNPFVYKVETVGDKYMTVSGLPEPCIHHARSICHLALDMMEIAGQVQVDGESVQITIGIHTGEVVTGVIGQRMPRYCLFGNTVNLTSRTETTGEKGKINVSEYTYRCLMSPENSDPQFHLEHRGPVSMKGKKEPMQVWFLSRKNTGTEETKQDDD
Method in brief: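 CHO-K1 cells stably expressing human sGC α1/β1 (4×10^5/mL, 0.5 mM IBMX) were treated with compounds (2.5% DMSO final) ± 1 μM DETA-NO for 1 hr at 37° C. Intracellular cGMP measured by HTRF. Activity expressed as % of Compound A maximal cGMP; IP and maximum fold induction from 4P fit.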

| SMILES | half-life [1] [min] | EC50 [2] [nM] | Emax ([2]; read-out: % Act. (percent activation relative to maximum cGMP production of Compound A = 100%)) [%] |
| --- | --- | --- | --- |
| Nc1nc(-c2cn3ncnc3c(CCCC(F)(F)F)n2)nc2c1C(c1ccc(C(F)F)cn1)(C1CC1)C(=O)N2 (racemic) [Example 44B, 4-amino-5-cyclopropyl-5-(5-(difluoromethyl)pyridin-2-yl)-2-(8-(4,4,4-trifluorobutyl)-[1,2,4]triazolo[1,5-a]pyrazin-6-yl)-5H-pyrrolo[2,3-d]pyrimidin-6(7H)-one] | 236 | 111 | – |
| C[C@@]1(c2ccc(F)cc2)C(=O)Nc2nc(-c3cn4ncnc4c(CCC(F)(F)C(F)(F)F)n3)nc(N)c21 [Example 1A, (S)-4-Amino-5-(4-fluorophenyl)-5-methyl-2-(8-(3,3,4,4,4-pentafluorobutyl)-[1,2,4]triazolo[1,5-a]pyrazin-6-yl)-5H-pyrrolo[2,3-d]pyrimidin-6(7H)-one] | 201 | 187 | – |
| CC1(c2ccc(F)cn2)C(=O)Nc2nc(-c3cn4ncnc4c(CCC(F)(F)C(F)(F)F)n3)nc(N)c21 (centres unmarked) [Example 4B, 4-amino-5-(5-fluoropyridin-2-yl)-5-methyl-2-(8-(3,3,4,4,4-pentafluorobutyl)-[1,2,4]triazolo[1,5-a]pyrazin-6-yl)-5H-pyrrolo[2,3-d]pyrimidin-6(7H)-one] | 178 | 117 | – |

Results, then the compound that gave them:

| half-life [1] [min] | EC50 [2] [nM] | Emax ([2]; read-out: % Act. (percent activation relative to maximum cGMP production of Compound A = 100%)) [%] | SMILES |
| --- | --- | --- | --- |
| 62.4 | – | – | CC1(c2ccc(F)cc2)C(=O)Nc2nc(-c3cn4ccnc4c(CCC(F)(F)C(F)(F)F)n3)nc(N)c21 (centres unmarked) [reference compound] |
| – | 597 | – | CC1(c2ccc(C(F)(F)F)cc2)C(=O)Nc2nc(-c3cn4ncnc4c(CCCC(F)(F)F)n3)nc(O)c21 (centres unmarked) [Example 137B, 4-hydroxy-5-methyl-2-(8-(4,4,4-trifluorobutyl)-[1,2,4]triazolo[1,5-a]pyrazin-6-yl)-5-(4-(trifluoromethyl)phenyl)-5H-pyrrolo[2,3-d]pyrimidin-6(7H)-one] |
| – | 575 | – | CC1(c2cncc(F)c2)C(=O)Nc2nc(-c3cn4ncnc4c(CCC(F)(F)C(F)(F)F)n3)nc(O)c21 (centres unmarked) [Example 125A, 5-(5-fluoropyridin-3-yl)-4-hydroxy-5-methyl-2-(8-(3,3,4,4,4-pentafluorobutyl)-[1,2,4]triazolo[1,5-a]pyrazin-6-yl)-5H-pyrrolo[2,3-d]pyrimidin-6(7H)-one] |
| – | 96.7 | 100 | C[C@@]1(c2ccc(F)cc2)C(=O)Nc2nc(-c3cn4ncnc4c(Cc4ccc(F)cc4)n3)nc(O)c21 [Example 162B, (S)-2-(8-(4-fluorobenzyl)-[1,2,4]triazolo[1,5-a]pyrazin-6-yl)-5-(4-fluorophenyl)-4-hydroxy-5-methyl-5H-pyrrolo[2,3-d]pyrimidin-6(7H)-one] |

Source: patent US9822130B2, “Triazolo-pyrazinyl derivatives useful as soluble guanylate cyclase activators” (Merck Sharp & Dohme Corp., priority 2014, dated 2017)
